# Assay results taken from patent US4204038A, “Process for preparing antibiotics MA 144-M1 and MA 144-M2” (Zaidan Hojin Biseibutsu Kagaku Kenkyu Kai, priority 1976, dated 1980).
# Structures can show the parent of a compound that is named as a salt. Where two headings read alike, the source gives them in different places.
# Assays:
# Antitumor activity = format: in vivo; details: in words
# L1210 cells [1] = test: Cytotoxicity: growth of cultured L1210 cells; format: cell-based, mice; details: for IC50: Mus musculus, read-out: ID50, Growth; for inhibition of the growth of cultured L1210 cells: at the low concentration, in words
# in vivo [2] = details: Mouse
# Toxicity = details: in words
# L1210 cells [3] = test: RNA synthesis in cultured L1210 cells; format: cell-based, mice; details: for inhibition of RNA synthesis: L1210 cells, in words
# Description: (§1) In this experiment, L1210 cells were inoculated in RPMI 1640 medium (Nissui, Roswell Park Memorial Institute 1640) containing 10% calf serum and cultivated at 37° C. for 3 days in a CO2 incubator, and MA 144-M1, MA 144-M2 and ^14 C-precursor were added at various concentrations. Effects on the synthesis of protein, RNA and DNA were indicated by the 50% inhibition concentration (μg./ml.) as shown in the following table.
# in vivo [4] = details: Rat
# L1210 = test: Therapeutic effectiveness on L1210-bearing mice; format: in vivo; details: intraperitoneally, day 0 to day 10, CDF1-L1210
# Description: (a) Therapeutic effectiveness on L1210-bearing mice
# Drug was administered intraperitoneally
# Can. tropicalis IAM 4942 = test: Minimum inhibitory concentration by the broth dilution method; format: cell-based; details: Candida tropicalis
# Excerpt: (§2) (1) MA 144-M1 and MA 144-M2 have antimicrobial activity against various kinds of microorganisms.
# Staph. aureus Smith = test: as above; format: cell-based; details: Staphylococcus aureus, read-out: Minimum inhibitory concentration (MIC)
# Excerpt: as §2
# Mic. flavus = test: as above; format: cell-based; details: Micrococcus flavus, read-out: Minimum inhibitory concentration (MIC)
# Excerpt: as §2
# Sarcina lutea ATCC 341 = test: as above; format: cell-based; details: Micrococcus luteus
# Excerpt: as §2
# Staph. aureus FDA 209P = test: as above; format: cell-based; details: Staphylococcus aureus, FDA209P, read-out: Minimum inhibitory concentration (MIC)
# Excerpt: as §2
# [5] = tested on: Ps. fluorescens NIH JB-254; test: as above; format: cell-based; details: Pseudomonas fluorescens
# Excerpt: as §2
# [6] = tested on: Mycobact. smegmatis ATCC 607; test: as above; format: cell-based; details: read-out: Minimum inhibitory concentration (MIC)
# Excerpt: as §2
# [7] = tested on: Bac. megaterium NRRL B-938; test: as above; format: cell-based; details: Priestia megaterium
# Excerpt: as §2
# Strept. pyogenes NY 5 = test: as above; format: cell-based; details: Streptococcus pyogenes
# Excerpt: as §2
# Can. albicans IAM 4905 = test: as above; format: cell-based; details: Candida albicans
# Excerpt: as §2
# Cory. bovis = test: as above; format: cell-based; details: Corynebacterium bovis, read-out: Minimum inhibitory concentration (MIC)
# Excerpt: as §2
# Proteus morganii = test: as above; format: cell-based; details: Morganella morganii, read-out: Minimum inhibitory concentration (MIC)
# Excerpt: as §2
# Bac. cereus ATCC 9634 = test: as above; format: cell-based; details: Bacillus cereus
# Excerpt: as §2
# Bac. subtilis ATCC 6633 = test: as above; format: cell-based; details: Bacillus subtilis
# Excerpt: as §2
# gram-positive bacteria = test: Antimicrobial activity against gram-positive bacteria; format: cell-based; details: in words
# Excerpt: as §2
# Sarcoma 180 = test: Therapeutic effectiveness on Sarcoma 180 solid tumor; format: in vivo, dd mice; details: intraperitoneally, day 1 to day 10; for Weight of tumor: control 1.68
# Description: (c) Therapeutic effectiveness on Sarcoma 180 solid tumor
# dd mice were inoculated with 2×10^6 cells of Sarcoma 180, and drug was administered intraperitoneally from day 1 to day 10.
# P388 = test: Therapeutic effectiveness on P388-bearing mice; format: in vivo; details: intraperitoneally, day 1 to day 9, CDF1-P388
# Description: (b) Therapeutic effectiveness on P388-bearing mice
# Drug was administered intraperitonally
# [8] = Basicity and lipophilicity
# L1210 cells [9] = test: Protein synthesis in cultured L1210 cells; format: cell-based, mice; details: Mus musculus, L1210, read-out: % inhibition, Protein synthesis
# Description: as §1
# L1210 cells [10] = test: DNA synthesis in cultured L1210 cells; format: cell-based, mice; details: Mus musculus, L1210, read-out: ID50, DNA synthesis
# Description: as §1
compound,measurement,setting,value
CCC1(O)CC(OC2CC(N(C)C)C(OC3CC(O)C(OC4CCC(O)C(C)O4)C(C)O3)C(C)O2)c2c(cc3c(c2O)C(=O)c2c(O)ccc(O)c2C3=O)C1C(=O)OC (stereo not shown) [MA 144-M2],antitumor activity,Antitumor activity,marked antitumor activity
same,IC50,"L1210 cells [1]; 72 h, cultured L1210 cells, 37° C., 3 days",0.05 µg/mL
same,inhibition of the growth of cultured L1210 cells,L1210 cells [1],inhibited markedly
same,LD50,in vivo [2]; ip,12.5 mg/kg
same,LD50,in vivo [2]; iv,12 to 20 mg/kg
same,toxicity,Toxicity,low toxicity
same,inhibition of RNA synthesis,L1210 cells [3],completely inhibited RNA synthesis
same,LD50,in vivo [4]; ip,10 to 15 mg/kg
same,LD50,in vivo [4]; iv,10 to 15 mg/kg
same,Prolongation of the survival time,L1210; 0.156 mg/kg/day,116%
same,Prolongation of the survival time,L1210; 0.313 mg/kg/day,144%
same,Prolongation of the survival time,L1210; 0.625 mg/kg/day,192%
same,Prolongation of the survival time,L1210; 1.25 mg/kg/day,200%
same,Prolongation of the survival time,L1210; 2.5 mg/kg/day,85%
same,Prolongation of the survival time,L1210; 5 mg/kg/day,46%
same,MIC,"Can. tropicalis IAM 4942; IAM4942, Can. tropicalis IAM 4942, broth dilution, read-out: Minimum inhibitory concentration (MIC)",100 µg/mL
same,MIC,"Staph. aureus Smith; Staph. aureus Smith, broth dilution",0.1 µg/mL
same,MIC,"Mic. flavus; Mic. flavus, broth dilution",0.2 µg/mL
same,MIC,"Sarcina lutea ATCC 341; ATCC341, Sarcina lutea ATCC 341, broth dilution, read-out: Minimum inhibitory concentration (MIC)",0.05 µg/mL
same,MIC,"Staph. aureus FDA 209P; Staph. aureus FDA 209P, broth dilution",0.78 µg/mL
same,MIC,"[5]; NIHJB254, Ps. fluorescens NIH JB-254, broth dilution, read-out: Minimum inhibitory concentration (MIC)",> 100 µg/mL
same,MIC,"[6]; Mycobact. smegmatis ATCC 607, broth dilution",1.25 µg/mL
same,MIC,"[7]; NRRLB938, Bac. megaterium NRRL B-938, broth dilution, read-out: Minimum inhibitory concentration (MIC)",0.78 µg/mL
same,MIC,"Strept. pyogenes NY 5; NY5, Strept. pyogenes NY 5, broth dilution, read-out: Minimum inhibitory concentration (MIC)",0.63 µg/mL
same,MIC,"Can. albicans IAM 4905; IAM4905, Can. albicans IAM 4905, broth dilution, read-out: Minimum inhibitory concentration (MIC)",50 µg/mL
same,MIC,"Cory. bovis; Cory. bovis, broth dilution",0.1 µg/mL
same,MIC,"Proteus morganii; Proteus morganii (the Institute for Infectious Diseases), broth dilution",> 100 µg/mL
same,MIC,"Bac. cereus ATCC 9634; ATCC9634, Bac. cereus ATCC 9634, broth dilution, read-out: Minimum inhibitory concentration (MIC)",0.05 µg/mL
same,MIC,"Bac. subtilis ATCC 6633; ATCC6633, Bac. subtilis ATCC 6633, broth dilution, read-out: Minimum inhibitory concentration (MIC)",0.05 µg/mL
same,antimicrobial activity against gram-positive bacteria,gram-positive bacteria,show antimicrobial activity against gram-positive bacteria
same,% Inhibition of tumor growth,Sarcoma 180; 0.3 mg/kg/day,16%
same,Weight of tumor,Sarcoma 180; 0.3 mg/kg/day,1.41 g
same,% Inhibition of tumor growth,Sarcoma 180; 0.6 mg/kg/day,46.5%
same,Weight of tumor,Sarcoma 180; 0.6 mg/kg/day,0.90 g
same,% Inhibition of tumor growth,Sarcoma 180; 1.25 mg/kg/day,76.8%
same,Weight of tumor,Sarcoma 180; 1.25 mg/kg/day,0.39 g
same,% Inhibition of tumor growth,Sarcoma 180; 2.5 mg/kg/day,83.3%
same,Weight of tumor,Sarcoma 180; 2.5 mg/kg/day,0.28 g
same,Weight of tumor,Sarcoma 180; 5 mg/kg/day,toxic
same,Prolongation of the survival time,P388; 0.313 mg/kg/day,125%
same,Prolongation of the survival time,P388; 0.625 mg/kg/day,148%
same,Prolongation of the survival time,P388; 1.25 mg/kg/day,206%
same,Prolongation of the survival time,P388; 2.5 mg/kg/day,83%
same,Prolongation of the survival time,P388; 5 mg/kg/day,57%
same,basicity,[8],Weakly basic
CCC1(O)CC(OC2CC(N(C)C)C(OC3CC(O)C(OC4CCC(O)C(C)O4)C(C)O3)C(C)O2)c2c(cc3c(c2O)C(=O)c2c(O)cccc2C3=O)C1C(=O)OC (stereo not shown) [MA 144-M1],antitumor activity,Antitumor activity,marked antitumor activity
same,IC50,"L1210 cells [1]; L1210, 72 h",0.12 µg/mL
same,inhibition of the growth of cultured L1210 cells,L1210 cells [1],inhibited markedly
same,inhibition at 10 µg/mL,L1210 cells [9],10%
same,LD50,in vivo [2]; ip,35 mg/kg
same,LD50,in vivo [2]; iv,30 to 35 mg/kg
same,toxicity,Toxicity,low toxicity
same,inhibition of RNA synthesis,L1210 cells [3],completely inhibited RNA synthesis
same,IC50,"L1210 cells [3]; Mus musculus, L1210, read-out: ID50, RNA synthesis",0.7 µg/mL
same,IC50,L1210 cells [10],1.7 µg/mL
same,LD50,in vivo [4]; ip,25 to 30 mg/kg
same,LD50,in vivo [4]; iv,25 to 30 mg/kg
same,Prolongation of the survival time,L1210; 0.156 mg/kg/day,110%
same,Prolongation of the survival time,L1210; 0.313 mg/kg/day,110%
same,Prolongation of the survival time,L1210; 0.625 mg/kg/day,123%
same,Prolongation of the survival time,L1210; 1.25 mg/kg/day,137%
same,Prolongation of the survival time,L1210; 2.5 mg/kg/day,192%
same,Prolongation of the survival time,L1210; 5 mg/kg/day,200%
same,Prolongation of the survival time,L1210; 10 mg/kg/day,90%
same,MIC,"Can. tropicalis IAM 4942; IAM4942, read-out: Minimum inhibitory concentration (MIC)",> 100 µg/mL
same,MIC,Staph. aureus Smith,0.2 µg/mL
same,MIC,Mic. flavus,0.2 µg/mL
same,MIC,"Sarcina lutea ATCC 341; ATCC341, read-out: Minimum inhibitory concentration (MIC)",0.05 µg/mL
same,MIC,Staph. aureus FDA 209P,3.1 µg/mL
same,MIC,"[5]; NIHJB254, read-out: Minimum inhibitory concentration (MIC)",> 100 µg/mL
same,MIC,[6],2.5 µg/mL
same,MIC,"[7]; NRRLB938, read-out: Minimum inhibitory concentration (MIC)",3.1 µg/mL
same,MIC,"Strept. pyogenes NY 5; NY5, read-out: Minimum inhibitory concentration (MIC)",1.25 µg/mL
same,MIC,"Can. albicans IAM 4905; IAM4905, read-out: Minimum inhibitory concentration (MIC)",100 µg/mL
same,MIC,Cory. bovis,0.4 µg/mL
same,MIC,Proteus morganii,> 100 µg/mL
same,MIC,"Bac. cereus ATCC 9634; ATCC9634, read-out: Minimum inhibitory concentration (MIC)",0.78 µg/mL
same,MIC,"Bac. subtilis ATCC 6633; ATCC6633, read-out: Minimum inhibitory concentration (MIC)",0.4 µg/mL
same,antimicrobial activity against gram-positive bacteria,gram-positive bacteria,show antimicrobial activity against gram-positive bacteria
same,% Inhibition of tumor growth,Sarcoma 180; 0.3 mg/kg/day,25.5%
same,Weight of tumor,Sarcoma 180; 0.3 mg/kg/day,1.25 g
same,% Inhibition of tumor growth,Sarcoma 180; 0.6 mg/kg/day,53.7%
same,Weight of tumor,Sarcoma 180; 0.6 mg/kg/day,0.78 g
same,% Inhibition of tumor growth,Sarcoma 180; 1.25 mg/kg/day,51.9%
same,Weight of tumor,Sarcoma 180; 1.25 mg/kg/day,0.81 g
same,% Inhibition of tumor growth,Sarcoma 180; 2.5 mg/kg/day,61.3%
same,Weight of tumor,Sarcoma 180; 2.5 mg/kg/day,0.65 g
same,% Inhibition of tumor growth,Sarcoma 180; 5 mg/kg/day,77.4%
same,Weight of tumor,Sarcoma 180; 5 mg/kg/day,0.38 g
same,Prolongation of the survival time,P388; 0.313 mg/kg/day,110%
same,Prolongation of the survival time,P388; 0.625 mg/kg/day,135%
same,Prolongation of the survival time,P388; 1.25 mg/kg/day,149%
same,Prolongation of the survival time,P388; 2.5 mg/kg/day,184%
same,Prolongation of the survival time,P388; 5 mg/kg/day,100%
same,basicity,[8],Weakly basic
same,lipophilicity,[8],lipophilic
same,solubility: slightly soluble in,Solubility,"slightly soluble in water, diethyl ether and n-hexane"
same,solubility: soluble in,Solubility,"soluble in acidic water, dimethyl sulfoxide, methylcellosolve, methanol, ethanol, ethyl acetate, acetone, chloroform, benzene, toluene"
CCC1(O)CC(OC2CC(N(C)C)C(OC3CC(O)C(OC4CCC(O)C(C)O4)C(C)O3)C(C)O2)c2c(cc3c(c2O)C(=O)c2c(O)cccc2C3=O)C1C(=O)OC (stereo not shown) [MA 144-M1 hydrochloride salt],solubility: slightly soluble in,Solubility,slightly soluble in acetone and ethyl acetate
same,solubility: soluble in,Solubility,"soluble in water, methanol and chloroform"
